According to patent publication US20250213489A1, “OSMOTIC TABLETS OF DEXPRAMIPEXOLE AND METHODS OF MANUFACTURING AND USE THEREOF” (Areteia Therapeutics, Inc., priority 2023, published 2025):
Counter-ions that a name gives are not always drawn.

How the values were obtained:
[1] = during tablet manufacture and storage
Description: The chiral purity might be determined by analyzing a sample of dexpramipexole, or a pharmaceutically acceptable salt thereof, by high performance liquid chromatography (HPLC).

dopamine receptors = details: cited from earlier work
eosinophils = details: human blood and tissues; cited from earlier work

| chiral purity over time [1] | Structure (SMILES) | affinity for dopamine receptors compared to pramipexole (dopamine receptors) | effect on eosinophil counts (eosinophils) |
| --- | --- | --- | --- |
| did not change over time | CCCN[C@@H]1CCc2nc(N)sc2C1 [dexpramipexole dihydrochloride monohydrate] |  |  |
|  | CCCN[C@@H]1CCc2nc(N)sc2C1 [dexpramipexole, (6R)-2-amino-4,5,6,7-tetrahydro-6-(propylamino)benzothiazole] | greatly reduced | selectively and significantly lower eosinophil counts |
